Molecular target: T1, 'rmTLR1 and 2' mixture (Mus musculus, UniProt Q9EPQ1+Q9QUN7)
T1 construct: Fc (chimera); purchased R&D Systems RDS1476TR050 + RDS1530TR050
T1 sequence (Q9EPQ1 26-582 limits assumed): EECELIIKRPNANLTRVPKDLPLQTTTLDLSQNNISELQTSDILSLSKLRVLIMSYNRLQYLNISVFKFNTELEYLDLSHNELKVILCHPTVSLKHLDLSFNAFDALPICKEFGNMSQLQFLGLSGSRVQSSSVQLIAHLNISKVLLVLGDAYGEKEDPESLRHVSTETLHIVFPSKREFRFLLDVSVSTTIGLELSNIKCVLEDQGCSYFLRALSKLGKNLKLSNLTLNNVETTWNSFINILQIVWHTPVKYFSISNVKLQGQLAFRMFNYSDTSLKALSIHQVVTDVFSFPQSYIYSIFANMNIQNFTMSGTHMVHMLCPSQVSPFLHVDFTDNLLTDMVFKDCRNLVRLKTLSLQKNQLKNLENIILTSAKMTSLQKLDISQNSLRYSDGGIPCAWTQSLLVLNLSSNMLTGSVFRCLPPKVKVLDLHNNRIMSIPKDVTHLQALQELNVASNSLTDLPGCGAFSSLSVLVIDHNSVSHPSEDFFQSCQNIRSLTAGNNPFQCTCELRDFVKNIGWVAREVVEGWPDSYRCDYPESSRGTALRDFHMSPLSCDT
T1 sequence (Q9QUN7 25-587 limits assumed): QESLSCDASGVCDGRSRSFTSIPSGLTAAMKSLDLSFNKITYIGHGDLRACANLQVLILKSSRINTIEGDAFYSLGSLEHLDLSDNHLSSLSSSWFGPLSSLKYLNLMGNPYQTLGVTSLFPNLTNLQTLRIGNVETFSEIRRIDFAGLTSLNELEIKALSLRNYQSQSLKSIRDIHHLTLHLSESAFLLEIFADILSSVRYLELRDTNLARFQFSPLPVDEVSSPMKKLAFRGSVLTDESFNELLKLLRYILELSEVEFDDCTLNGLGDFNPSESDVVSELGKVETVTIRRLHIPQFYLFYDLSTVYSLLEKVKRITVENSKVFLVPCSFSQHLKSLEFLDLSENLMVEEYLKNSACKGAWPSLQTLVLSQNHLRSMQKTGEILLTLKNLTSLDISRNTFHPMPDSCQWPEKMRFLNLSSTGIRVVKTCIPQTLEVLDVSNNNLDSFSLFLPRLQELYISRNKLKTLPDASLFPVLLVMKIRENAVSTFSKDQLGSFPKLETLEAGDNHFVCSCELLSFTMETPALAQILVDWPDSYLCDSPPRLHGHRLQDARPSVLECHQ
Assay: Label-free hybridized 'TLR1 and 2' sensor, EIS detection of Pam3CSK4 (Example 7)
Format: binding
Settings: for delta Rct % / Rct: 'TLR1 and 2' sensor; for delta Rct %: 20 minutes; for Rct: before immersion 5472
Method: TLR sensors were prepared using fresh, cleaned gold electrodes. The electrodes were immersed in a 2 mM 1-lipoic acid n-hydroxysuccinimide ester (LPA) ethanol solution for 48 hours at 277 K. The electrodes were then rinsed thoroughly using absolute ethanol and blown dry under nitrogen before incubation in 200 μg/ml rmTLR1, 200 μg/ml rmTLR2 and 200 μg/ml ‘rmTLR1 and 2’ mixture for 72 hours at 277 K. The rmTLR1 and 2 mixture was prepared by mixing 200 μg/ml rmTLR1 and 200 μg/ml rmTLR2 with a volume ratio of 1:1. The final concentration of each component was 100 μg/ml and the total concentration of the combined TLR protein content was 200 μg/ml. Following the supplier's recommended conditions, all TLRs were prepared in PBS buffer (pH˜7.4). The electrodes were rinsed with an excess volume of Milli-Q water and blown dry under nitrogen. An ethanolamine-tris buffer solution was prepared by dissolving 1.2 g of ethanolamine and 0.121 g of Tris base in 20 mL of water, the pH was adjusted to 8.4 using hydrochloric acid. TLR-immobilized electrodes were incubated in the ethanolamine solution for one hour at room temperature in order to block any remaining unreacted LPA amine sites. The fabricated sensors with immobilized, standalone rmTLR3, rmTLR4/MD-2 and rmTLR5, used for the selectivity test, were prepared using the same protocol described above.
Pam3CSK4 was dissolved in 10 mM HEPES aqueous buffer at pH˜7.4. The blocked rmTLR biosensors were incubated in Pam3CSK4 at various concentrations for 20 minutes. The electrodes were always washed thoroughly with same HEPES buffer (pH˜7.4) after the incubation.
All electrochemical measurements were carried out using a cell with a three-electrode configuration in an enclosed Faraday cage. CV and EIS measurements were completed using a CHI-660b potentiostat (CH Instruments, Austin, Tex.). rmTLR-modified gold electrodes and platinum (Pt) wire were used as the working electrode and the counter electrode, respectively. A reference electrode (Ag/AgCl/3.0M KCl) and a salt bridge, filled with an agar and 1M KNO3 aqueous solution, were inserted to minimize the diffusion of chloride ions into the electrolyte solution. The agar solution was prepared by dissolving 2.0 grams of agar and 10.1 g KNOB in 100 mL of water. The CV and EIS electrolyte was made in a 10 mM HEPES aqueous buffer at pH˜7.4, which consisted of a 5 mM K4Fe(CN)6/5 mM K3Fe(CN)6 as a redox couple with 1M of NaClO4 as the supporting electrolyte. For consistency, the electrochemical measurements were carried out with open-circuit potentials. EIS experiments were conducted in the frequency range of 100,000 to 0.1 Hz with an amplitude of 5 mV. The experimental EIS curves were evaluated to determine the film resistance using ZSimpWin 2.0 software.

Substance: Pam3CSK4
- delta Rct % (5 μM): 37±11%
- delta Rct % (25 μM): 125±19%
- delta Rct % (50 μM): 199±26%
- Rct (after 5 μM): 5688 Ω · cm^2
- Rct (after 10 μM): 7147 Ω · cm^2
- Rct (after 25 μM): 11260 Ω · cm^2
- Rct (after 50 μM): 15620 Ω · cm^2
- limit of detection (hybridized 'TLR1 and 2' sensor): 5 µM

— US10794932B2, “Biosensor for the detection of a biological target, and method for manufacturing the same” (The Governing Council of The University of Toronto, priority 2016, dated 2020)
